From patent US12077503B2, “Substituted cyclic amides and their use as herbicides” (FMC CORPORATION, priority 2015, dated 2024)

Key:
Type in all cases: in vivo
[1] = tested on: barnyardgrass (Echinochloa crus-galli); experiment: Test G Pre-Emergence Protocol; details: evaluated after 13 days
Procedure: (§1) Seeds of corn (Zea mays), giant foxtail (Setaria faberi), barnyardgrass (Echinochloa crus-galli), ivy-leaved morning glory (Ipomoea hederacea), redroot pigweed (Amaranthus retroflexus) and velvetleaf (Abutilon theophrasti) were sown in standard soil in pots. After cultivation for one day under controlled conditions in a glasshouse (at 24/16° C., day/night; 14 hours light; 65% humidity), the plants were sprayed with an aqueous spray solution derived from the formulation of the technical active ingredient in acetone/water (50:50) solution containing 0.5% Tween 20 (polyoxyethylene sorbitan monolaurate, CAS RN 9005-64-5) to give a final dose of 15.625, 62.5 or 250 g/ha of test compound.
(§2) The test plants were then grown on under controlled conditions in a glasshouse (at 24/16° C., day/night; 14 hours light; 65% humidity) and watered twice daily. After 13 days the test was evaluated (100=total damage to plant; 0=no damage to plant). A dash (-) means no test result.

corn (Zea mays) [2] = experiment: Test G Pre-Emergence Protocol; details: evaluated after 13 days
Procedure: as §1, §2

[3] = tested on: giant foxtail (Setaria faberi); experiment: Test G Pre-Emergence Protocol; details: evaluated after 13 days
Procedure: as §1, §2

[4] = tested on: ivy-leaved morning glory (Ipomoea hederacea); experiment: Test G Pre-Emergence Protocol; details: evaluated after 13 days; for Morningglory, Ivy-leaved damage rating (100=total damage to plant; 0=no damage to plant): 250 g ai/ha
Procedure: as §1, §2

[5] = tested on: redroot pigweed (Amaranthus retroflexus); experiment: Test G Pre-Emergence Protocol; details: evaluated after 13 days
Procedure: as §1, §2

[6] = tested on: velvetleaf (Abutilon theophrasti); experiment: Test G Pre-Emergence Protocol; details: evaluated after 13 days
Procedure: as §1, §2

[7] = tested on: barnyardgrass (Echinochloa crus-galli); experiment: Test G Post-Emergence Protocol
Procedure: as §1, with “8 days” for “one day”
as §2

corn (Zea mays) [8] = experiment: Test G Post-Emergence Protocol
Procedure: as §1, with “8 days” for “one day”
as §2

[9] = tested on: giant foxtail (Setaria faberi); experiment: Test G Post-Emergence Protocol
Procedure: as §1, with “8 days” for “one day”
as §2

[10] = tested on: ivy-leaved morning glory (Ipomoea hederacea); experiment: Test G Post-Emergence Protocol
Procedure: as §1, with “8 days” for “one day”
as §2

[11] = tested on: redroot pigweed (Amaranthus retroflexus); experiment: Test G Post-Emergence Protocol
Procedure: as §1, with “8 days” for “one day”
as §2

[12] = tested on: velvetleaf (Abutilon theophrasti); experiment: Test G Post-Emergence Protocol
Procedure: as §1, with “8 days” for “one day”
as §2

[13] = 62.5 g ai/ha, 100=total damage to plant, 0=no damage to plant
[14] = 15.625 g ai/ha, evaluated after 13 days (100=total damage to plant; 0=no damage to plant)
[15] = 62.5 g ai/ha, evaluated after 13 days, 100=total damage to plant, 0=no damage to plant
[16] = 250 g ai/ha, evaluated after 13 days, 100=total damage to plant, 0=no damage to plant
[17] = 62.5 g ai/ha, evaluated after 13 days
[18] = 250 g ai/ha, evaluated after 13 days

CN1C[C@@H](c2ccc(C(F)(F)F)cc2)[C@H](C(=O)Nc2cccnc2F)C1=O (racemic) [Compound 1653]
Barnyardgrass damage rating [1, 13]: 80 | Barnyardgrass damage rating (100=total damage to plant; 0=no damage to plant) ([1]; 250 g ai/ha): 80 | pest or weed control at 15.625 g/ha ([1]; Echinochloa crus-galli, pre-emergence, 312 h, 15.625 g ai/ha, read-out: Barnyardgrass damage rating (100=total damage to plant; 0=no damage to plant)): 0% | Corn damage rating (corn (Zea mays) [2]; [13]): 30 | Corn damage rating (100=total damage to plant; 0=no damage to plant) (corn (Zea mays) [2]; 250 g ai/ha): 80 | plant injury at 15.625 g/ha (corn (Zea mays) [2]; Zea mays, pre-emergence, 312 h, 15.625 g ai/ha, read-out: Corn damage rating (100=total damage to plant; 0=no damage to plant)): 0% | Foxtail, Giant damage rating (100=total damage to plant; 0=no damage to plant) ([3]; 15.625 g ai/ha): 60 | Foxtail, Giant damage rating [3, 13]: 90 | Foxtail, Giant damage rating (100=total damage to plant; 0=no damage to plant) ([3]; 250 g ai/ha): 90 | Morningglory, Ivy-leaved damage rating (100=total damage to plant; 0=no damage to plant) [4]: 20 | pest or weed control at 15.625 g/ha ([4]; Ipomoea, pre-emergence, 312 h, 15.625 g ai/ha, read-out: Morningglory, Ivy-leaved damage rating (100=total damage to plant; 0=no damage to plant)): 0% | pest or weed control at 62.5 g/ha ([4]; Ipomoea, pre-emergence, 312 h, 62.5 g ai/ha, 100=total damage to plant, 0=no damage to plant, read-out: Morningglory, Ivy-leaved damage rating): 0% | Pigweed, Redroot damage rating [5, 13]: 40 | Pigweed, Redroot damage rating (100=total damage to plant; 0=no damage to plant) ([5]; 250 g ai/ha): 80 | pest or weed control at 15.625 g/ha ([5]; Amaranthus retroflexus, pre-emergence, 312 h, 15.625 g ai/ha, read-out: Pigweed, Redroot damage rating (100=total damage to plant; 0=no damage to plant)): 0% | Velvetleaf damage rating [6, 13]: 10 | Velvetleaf damage rating (100=total damage to plant; 0=no damage to plant) ([6]; 250 g ai/ha): 50 | pest or weed control at 15.625 g/ha ([6]; Abutilon theophrasti, pre-emergence, 312 h, 15.625 g ai/ha, read-out: Velvetleaf damage rating (100=total damage to plant; 0=no damage to plant)): 0% | Barnyardgrass damage rating [7, 14]: 30 | Barnyardgrass damage rating [7, 15]: 60 | Barnyardgrass damage rating [7, 16]: 80 | Corn damage rating (corn (Zea mays) [8]; [15]): 30 | Corn damage rating (corn (Zea mays) [8]; [16]): 70 | plant injury at 15.625 g/ha (corn (Zea mays) [8]; Zea mays, post-emergence, 312 h, 15.625 g ai/ha, evaluated after 13 days (100=total damage to plant; 0=no damage to plant), read-out: Corn damage rating): 0% | Foxtail, Giant damage rating [9, 14]: 60 | Foxtail, Giant damage rating [9, 15]: 80 | Foxtail, Giant damage rating [9, 16]: 80 | Morningglory, Ivy-leaved damage rating [10, 14]: 10 | Morningglory, Ivy-leaved damage rating [10, 15]: 30 | Morningglory, Ivy-leaved damage rating [10, 16]: 40 | Pigweed, Redroot damage rating [11, 15]: 70 | Pigweed, Redroot damage rating [11, 16]: 80 | pest or weed control at 15.625 g/ha ([11]; Amaranthus retroflexus, post-emergence, 312 h, 15.625 g ai/ha, evaluated after 13 days (100=total damage to plant; 0=no damage to plant), read-out: Pigweed, Redroot damage rating): 0% | Velvetleaf damage rating [12, 15]: 40 | Velvetleaf damage rating [12, 16]: 50 | pest or weed control at 15.625 g/ha ([12]; Abutilon theophrasti, post-emergence, 312 h, 15.625 g ai/ha, evaluated after 13 days (100=total damage to plant; 0=no damage to plant), read-out: Velvetleaf damage rating): 0%

CN1CC(c2ccc(C(F)(F)F)cc2)C(C(=O)Nc2cccc(F)c2[N+](=O)[O-])C1=O (racemic) [Compound 1546]
Barnyardgrass damage rating (100=total damage to plant; 0=no damage to plant) ([1]; 15.625 g ai/ha): 0 | plant damage rating, Barnyardgrass [1, 13]: 20 | Barnyardgrass damage rating (100=total damage to plant; 0=no damage to plant) ([1]; 250 g ai/ha): 80 | Corn damage rating (100=total damage to plant; 0=no damage to plant) (corn (Zea mays) [2]; 15.625 g ai/ha): 0 | plant damage rating, Corn (corn (Zea mays) [2]; [13]): 10 | Corn damage rating (100=total damage to plant; 0=no damage to plant) (corn (Zea mays) [2]; 250 g ai/ha): 40 | Foxtail, Giant damage rating (100=total damage to plant; 0=no damage to plant) ([3]; 15.625 g ai/ha): 60 | plant damage rating, Foxtail, Giant [3, 13]: 80 | Foxtail, Giant damage rating (100=total damage to plant; 0=no damage to plant) ([3]; 250 g ai/ha): 90 | Morning-glory, Ivy-leaved damage rating (100=total damage to plant; 0=no damage to plant) ([4]; 15.625 g ai/ha): 0 | plant damage rating, Morningglory, Ivy-leaved [4, 13]: 20 | Morningglory, Ivy-leaved damage rating (100=total damage to plant; 0=no damage to plant) [4]: 40 | Pigweed, Redroot damage rating (100=total damage to plant; 0=no damage to plant) ([5]; 15.625 g ai/ha): 0 | plant damage rating, Pigweed, Redroot [5, 13]: 30 | Pigweed, Redroot damage rating (100=total damage to plant; 0=no damage to plant) ([5]; 250 g ai/ha): 70 | Velvetleaf damage rating (100=total damage to plant; 0=no damage to plant) ([6]; 15.625 g ai/ha): 0 | plant damage rating, Velvetleaf [6, 13]: 0 | Velvetleaf damage rating (100=total damage to plant; 0=no damage to plant) ([6]; 250 g ai/ha): 0 | Barnyardgrass damage rating [7, 14]: 40 | Barnyardgrass damage rating (100=total damage to plant; 0=no damage to plant) [7, 17]: 70 | damage to plant, Barnyardgrass (100=total damage to plant; 0=no damage to plant) [7, 18]: 80 | Corn damage rating (corn (Zea mays) [8]; [14]): 0 | Corn damage rating (100=total damage to plant; 0=no damage to plant) (corn (Zea mays) [8]; [17]): 20 | damage to plant, Corn (100=total damage to plant; 0=no damage to plant) (corn (Zea mays) [8]; [18]): 50 | Foxtail, Giant damage rating [9, 14]: 60 | Foxtail, Giant damage rating (100=total damage to plant; 0=no damage to plant) [9, 17]: 80 | damage to plant, Foxtail, Giant (100=total damage to plant; 0=no damage to plant) [9, 18]: 80 | Morningglory, Ivy-leaved damage rating [10, 14]: 0 | Morningglory, Ivy-leaved damage rating (100=total damage to plant; 0=no damage to plant) [10, 17]: 20 | damage to plant, Morningglory, Ivy-leaved (100=total damage to plant; 0=no damage to plant) [10, 18]: 30 | Pigweed, Redroot damage rating [11, 14]: 30 | Pigweed, Redroot damage rating (100=total damage to plant; 0=no damage to plant) [11, 17]: 60 | damage to plant, Pigweed, Redroot (100=total damage to plant; 0=no damage to plant) [11, 18]: 60 | Velvetleaf damage rating [12, 14]: 0 | Velvetleaf damage rating (100=total damage to plant; 0=no damage to plant) [12, 17]: 0 | damage to plant, Velvetleaf (100=total damage to plant; 0=no damage to plant) [12, 18]: 10
